Details of series [1]: method as in PMID 22189273, PMID 22837812. The conditions noted are these: cited from earlier work.
For series [2], the system named is UMNs of prpTDP‐43^A315T‐UeGFP mice. In words: EM quantification of mitochondria and ER in UMNs, prpTDP‐43^A315T‐UeGFP mice. In kind it is in vivo. How it is done:
(§1) hSOD1^G93A‐UeGFP, prpTDP‐43^A315T‐UeGFP and WT‐UeGFP mice were weighed and the required NU‐9 dose per weight was calculated (20 or 100 mg/kg), which was administered once daily by oral gavage, starting at postnatal day (P)60 and continuing until P120. Animals from the untreated group received the vehicle (NMP and olive oil) only. For oral administration purposes, 20 ga × 38 mm plastic feeding tubes were used (Instech Laboratories, Inc). The gavage tip was inserted into the mouth directly over the tongue and into the pharynx. While observing the swallowing reflex, the tip was safely and smoothly slid into the esophagus. Once the administration was completed, the gavage tip was pulled straight out.
Mice were perfused with EM grade 4% PFA. One hemisphere of the brain was sectioned at 50 µm thickness coronally on a vibratome (Leica VT1000S, Leica Inc., Nussloch, Germany). The sections were postfixed in 2% PFA and 0.5% glutaraldehyde for 1 h, they were cryoprotected with glycerol–dimethylsulfoxide (DMSO) mixture followed by freeze–thaw at least four times, and treated with 1% sodium borohydride. They were then treated with 0.3% H2O2–10% methanol in TBS (100 mM Tris–HCl and 150 mM NaCl, pH 7.6) and 5% normal goat serum–1% bovine serum albumin in TBS to block nonspecific binding of primary antibody. This mixture was incubated overnight with rat anti‐Ctip2 antibody (1:500, Thermo Fisher Scientific, Rockford, IL, USA). Biotinylated goat anti‐rat IgG (1:500, Vector Laboratories, Burlingame, CA, USA) was used as the secondary antibody, and diaminobenzidine (DAB) was applied as the chromogen (ABC Elite kit, Vector Laboratories, Burlingame, CA, USA). Sections were then postfixed in buffered 2% osmium tetroxide (OsO4) (Electron Microscopy Sciences, Hatfield, PA, USA), rinsed with distilled water, and stained in 1% uranyl acetate (Electron Microscopy Sciences, Hatfield, PA, USA), again rinsed with distilled water, dehydrated in ascending grades of ethanol with transition fluid propylene oxide (Electron Microscopy Sciences, Hatfield, PA, USA), embedded in the resin mixture with Embed 812 (Electron Microscopy Sciences, Hatfield, PA, USA), and cured in a 60°C oven for 3 days. The sections in which primary motor cortex was present and visible under bright‐field illumination on a dissecting scope were selected. Approximately, 5‐mm‐wide × 7‐mm‐long pieces of the motor cortex from these sections were dissected under the microscope mounted on a resin block and were sectioned on a Leica Ultracut UC6 ultramicrotome (Leica Inc., Nussloch, Germany). The motor cortex was further trimmed, and only layer 5 was kept intact for preparing ultrathin sections. UMNs were identified based on the presence of Ctip2 immunohistochemistry (DAB) in their nuclei (Figure S1). Seventy‐nanometer‐thin sections were collected on 200‐mesh copper–palladium grids. Grids were counterstained with 8% radioactive depleted uranyl acetate and 0.2% lead citrate. Grids were examined on FEI Tecnai Spirit G2 TEM (FEI company, Hillsboro, OR, USA), and digital images were captured on a FEI Eagle camera.
EM images of Betz cells of normal control and patients, Ctip2‐positive (Ctip2^+) UMN of WT, and hSOD1^G93A‐UeGFP and prpTDP‐43^A315T‐UeGFP mice (Figure S1) were acquired from 70‐nm ultrathin sections of the motor cortex, and EM images were taken on FEI Tecnai Spirit G2 TEM using FEI Eagle camera. Mitochondria were quantified, as described previously. ^34 Mitochondria with intact outer and inner membrane and with intact cristae were considered healthy. Mitochondria with morphological defects, such as broken outer and/or inner membrane and cristae, were counted individually and were reported as percentage of defective mitochondria. ER that are disintegrated and that display profound expansion were considered unhealthy. Length of ER cisternae was measured using line tool of ImageJ software (NIH) upon calibration for pixels/micrometer using set scale function. […]

The subject of series [3] is UMNs in the motor cortex of WT‐UeGFP mice. In words: UMN quantification in motor cortex, WT‐UeGFP mice. Format: in vivo. How it is done: as §1
Since UMNs are genetically labeled with eGFP expression in the motor cortex of WT‐UeGFP, hSOD1^G93A‐UeGFP, and prpTDP‐43^A315T‐UeGFP mice, UMNs were identified based on the GFP expression. Quantitative analyses were performed on three matched rostrocaudal sections spanning the motor cortex. Three images per subject were taken to capture a 4× objective filed that encompass layer 5 of the motor cortex. An inverted epifluorescent Eclipse TE2000‐E microscope (Nikon) with the same exposure time and intensity was used. UMNs were counted only if their soma and apical dendrite were both visualized in the same 50‐µm thick section. Images were analyzed in ImageJ (NIH) using the Find maxima processing command to determine the local maxima within a predetermined region of interest that circumscribes the layer 5 of the motor cortex. A universal noise tolerance, which ignores the local maxima corresponding to background and autofluorescence, was applied to all images.

[4] abbreviates: prpTDP-43A315T-UeGFP mice, NU-9 100 mg/kg/day.
Where [5] appears, read: prpTDP-43A315T-UeGFP untreated minus NU-9 100 mg/kg/day, Tukey's multiple comparisons test.
[6] abbreviates: prpTDP‐43^A315T‐UeGFP mice, 100 mg/kg/day oral gavage P60–P120.
The mark [7] stands for this setting: WT-UeGFP mice, NU-9 100 mg/kg/day.
The mark [8] stands for this setting: WT-UeGFP vehicle minus NU-9 100 mg/kg/day, Tukey's multiple comparisons test.

On to `C[C@H](Oc1cc(C(F)(F)F)cc(C(F)(F)F)c1)C1CC(=O)CC(=O)C1` [NU‐9], for which, in series [1], the Plasma protein binding is on record as 90%. Further, the “Mean Diff., Fig. 6J, TDP-43 vs. TDP-43 -NU9” value in series [2] (prpTDP43A315T-UeGFP untreated minus NU-9 100 mg/kg/day, Tukey's multiple comparisons test) is given as -0.8333. Further, the “Fig. 6G group mean (total number of mitochondria/UMN)” value in series [2] (prpTDP-43A315T-UeGFP (NU-9 100 mg/kg/day)) is 31.85. In series [2] (setting [4]), the “Mean, Fig. 6H (EM quantification in UMNs)” value amounted to 86.77; the “Mean, Fig. 6I (EM quantification in UMNs)” value is 31.16; the “Mean, Fig. 6J (EM quantification in UMNs)” value was found to be 1.37. In series [2] (setting [5]), the “Mean Diff., Fig. 6H, TDP-43 vs. TDP-43 -NU9” value is -64.89 and the “Mean Diff., Fig. 6I, TDP-43 vs. TDP-43 -NU9” value is -18.7. In series [2] (setting [6]), the “average number of intact ER cisternae in UMNs” value is 36 ± 2 ER cisternae/UMN/section, the “average percentage of healthy mitochondria” value is given as 87% ± 1% and the “total mitochondria per UMN per section” value was found to be 32 ± 3 mitochondria/UMN/section. Moreover, in series [3] (setting [7]), the “Mean, Fig. 5E (UMN quantification in motor cortex)” value was determined as 65.5 and the “Mean, Fig. 7H (UMN quantification in motor cortex)” value was determined as 65.5. Besides, in series [3] (setting [8]), the “Mean Diff., Fig. 5E, G Vehicle vs. G NU-9 (100)” value is reported as -6.183 and the “Mean Diff., Fig. 7H, G Vehicle vs. G NU-9 (100)” value is -6.183. Also, the “average number of UMNs per section in the motor cortex” value in series [3] (WT‐UeGFP mice, 100 mg/kg/day oral gavage P60–P120) was determined as 66 ± 1 UMNs.

(Values after publication PMC7898037, “Improving mitochondria and ER stability helps eliminate upper motor neuron degeneration that occurs due to mSOD1 toxicity and TDP‐43 pathology” (Clinical and Translational Medicine, 2021).)
